Here are results for six molecules from publication PMC6691063, “Increased Body Weight and Fat Mass After Subchronic GIP Receptor Antagonist, but Not GLP-2 Receptor Antagonist, Administration in Rats” (Frontiers in Endocrinology, 2019).

The subject of data set [1] is Male Wistar rats. As to the kind of experiment: Plasma and intrahepatic triglycerides after subchronic treatment. Format: in vivo, rat. Particulars: 25 nmol/kg b.w. sc once daily for 3 weeks, vs vehicle, n = 6/group; for Intrahepatic triglyceride content: liver lipid extract; for Plasma triglyceride levels: terminal blood. The text has this: (§1) After 1 week of acclimatization, animals were allocated into five groups (n = 6/each group). Rats received either vehicle, rat GIP(3-30)NH2, (25 nmol/kg b.w.), human (Pro3)GIP (25 nmol/kg b.w.), human GLP-2(3-33) (25 nmol/kg b.w.), or human GLP-2(11-33) (25 nmol/kg b.w.) sc daily at 6 PM for 3 weeks. […] To study bone resorption, blood was collected from the sublingual vein of rats at −2, −1, 0, 6, 10, 14, 17, 21 days of treatment. The day after the last injection, the rats were euthanized and blood was collected from the vena cava for further biochemical analysis. The liver was excised and samples were snap-frozen in liquid nitrogen and stored at −80°C until assayed.
(§2) To obtain serum, blood samples were allowed to clot for 30 min and were then centrifuged (10 min at 3,000 × g) and stored at −20°C until analysis. To obtain plasma, blood was collected into chilled tubes containing in final concentrations EDTA 3.9 mmol/l and valine-pyrolidide 0.01 mmol/l (a DPP-4 inhibitor, a gift from Novo Nordisk A/S, Bagsvaerd, Denmark). The samples were centrifuged (10 min at 3,000 × g, 4°C) and plasma was kept at −80°C until analysis.
Total liver lipids were extracted as previously described ([31]). The extracts were evaporated under vacuum in a rotary evaporator and re-suspended in 1 ml of isopropanol for quantification of triglycerides. Plasma and intrahepatic triglycerides were assessed using triglyceride determination kit (Sigma-Aldrich, Saint Louis, USA). All samples were analyzed in duplicates in the same assay to prevent inter assay variation.

Data set [2] is described as follows: Pharmacokinetic study of GIP(3-30)NH2, plasma radioimmunoassay. It is filed as in vivo, rat. As for the experimental part:
Samples were taken at 0, 5, 10, 20, 30, and 45 min post-injection of GIP(3-30)NH2. Blood was immediately aliquoted into tubes containing final concentrations of EDTA 3.9 mmol/l. Samples were centrifuged (3,000 × g for 10 min at 4°C) and the plasma stored at −80°C until analysis. GIP(3-30)NH2 concentrations were measured in plasma with an in-house-developed radioimmunoassay ([50]) using a polyclonal antibody (code no. 95236) raised in rabbits against porcine GIP(1-30)NH2. As standard we used rat GIP(3-30)NH2 and the tracer was ^125I-labeled human GIP(3-30NH2).

Data set [3] concerns Male Wistar rats. In words: Plasma adipokines (leptin, resistin, adiponectin) after subchronic treatment. It is filed as in vivo, rat. Conditions: 25 nmol/kg b.w. sc once daily for 3 weeks, vs vehicle, n = 6/group.
From the text: as §1, §2
(§3) Bone resorption was assessed by measurements of degradation product from C-terminal cross linked telopeptides of type 1 collagen (CTX, RatLaps; IDS Immunodiagnostic Systems GmbH, Frankfurt am Main, Germany). CTX values were expressed as percent of the mean of the baseline values (days−2,−1, 0) of the individual animal. The intra- and interassay coefficient of variation (CV's) of the assay is in the range 6–10 and 10–15%, respectively. Resistin was measured using rat resistin enzyme immunoassay kit (Bertinpharma, Montigny le Bretonneux, France). The intra-assay CV is <5%, the inter-assay <10%. Leptin was measured using rat leptin enzyme immunoassay kit (Mediagnost, Reutlingen, Germany). The intra- and inter-assay CV are <5%. Adiponectin was measured using rat adiponectin ELISA kit (Millipore, St. Charles, Missouri, USA). The intra- and inter-assay CV are <2 and <9%, respectively. LPL was measured using lipoprotein lipase ELISA kit (Cell Biolabs, San Diego, CA, USA). The intra- and inter-assay CV are <4 and <8%, respectively. All samples were analyzed in duplicates in the same assay to prevent inter assay variation.

The subject of data set [4] is Male Wistar rats. As to the kind of experiment: Plasma lipoprotein lipase (LPL) ELISA after subchronic treatment. Particulars: 25 nmol/kg b.w. sc once daily for 3 weeks, vs vehicle, n = 6/group. It is filed as in vivo, rat.
From the text: as §1, with “assayed. […]” for “assayed.”
Bone resorption was assessed by measurements of degradation product from C-terminal cross linked telopeptides of type 1 collagen (CTX, RatLaps; IDS Immunodiagnostic Systems GmbH, Frankfurt am Main, Germany). CTX values were expressed as percent of the mean of the baseline values (days−2,−1, 0) of the individual animal. […] Resistin was measured using rat resistin enzyme immunoassay kit (Bertinpharma, Montigny le Bretonneux, France). […] Leptin was measured using rat leptin enzyme immunoassay kit (Mediagnost, Reutlingen, Germany). […] Adiponectin was measured using rat adiponectin ELISA kit (Millipore, St. Charles, Missouri, USA). […] LPL was measured using lipoprotein lipase ELISA kit (Cell Biolabs, San Diego, CA, USA). […]

For data set [5], the system named is Male Wistar rats. As to the kind of experiment: Bone resorption: serum CTX (RatLaps) during subchronic treatment. It is filed as in vivo, rat. Conditions: 25 nmol/kg b.w. sc once daily for 3 weeks, days 0-21, percent of individual baseline, vs vehicle, n = 6/group.
From the text: as §1, §2, §3

The subject of data set [6] is Male Wistar rats. In words: Subchronic treatment in rats: food intake, body weight, body composition (EchoMRI). Conditions: vs vehicle, n = 6/group; for Food intake: measured twice a week, cage means; for Body weight: monitored weekly. It is filed as in vivo, rat. As for the experimental part:
All experiments were in accordance with internationally accepted principles for the care and use of laboratory animals and in compliance with an animal experiment license (2013/15–2934-00833) issued (to JH) by the Danish Committee for Animal Research. Male Wistar rats (Taconic, Denmark) weighing ~200 g at the time of arrival were housed two in each cage at the Panum Institute, Copenhagen, Denmark. They were kept in temperature- (21°C) and humidity-controlled (55%) rooms with light/dark cycles of 12 h with free access to standard rat chow and water.
as §1
Food intake was measured twice a week during the study period at 10 AM by subtracting the leftover weights from the initial weights and calculated as cage means (g/rat). Body weight was monitored weekly at 10 AM. Measures of body lean and fat mass were determined in live, conscious animals using quantitative magnetic resonance spectroscopy (EchoMRI-700TM; Echo MRI).

The target of the next data set is rat GIPR. Conditions: acts as a partial agonist at the rat GIPR, elsewhere ref 22, 25; cited from earlier work.
The conditions of data set [7]: cited from earlier work. The source says:
Glucose-dependent insulinotropic peptide (GIP) and glucagon-like peptide-2 (GLP-2) are peptide hormones released from K and L cells of the gastrointestinal tract, respectively ([1], [2]). Both exert their functions through activation of specific G protein-coupled receptors ([3], [4]). The GIP receptor (GIPR) is expressed on different cell type including pancreatic cells, adipocytes ([5]), osteoblasts ([6]), and osteoclasts ([7]). The GLP-2 receptor (GLP-2R) is widely expressed in gastrointestinal tract and central nervous system ([8]–[10]) but fewer are found in the liver, vagal afferents, and ...

Setting [8] is: 25 nmol/kg b.w. sc once daily for 3 weeks.

Like-named read-outs stand apart in the source and are kept apart here.

As to `CC[C@H](C)[C@H](NC(=O)[C@H](CO)NC(=O)[C@H](Cc1ccc(O)cc1)NC(=O)[C@H](CC(=O)O)NC(=O)[C@H](CO)NC(=O)[C@@H](NC(=O)[C@H](Cc1ccccc1)NC(=O)[C@@H](NC(=O)CNC(=O)[C@@H](N)CCC(=O)O)[C@@H](C)O)[C@@H](C)CC)C(=O)N[C@@H](C)C(=O)N[C@@H](CCSC)C(=O)N[C@@H](CC(=O)O)C(=O)N[C@@H](CCCCN)C(=O)N[C@H](C(=O)N[C@@H](CCCNC(=N)N)C(=O)N[C@@H](CCC(N)=O)C(=O)N[C@@H](CCC(N)=O)C(=O)N[C@@H](CC(=O)O)C(=O)N[C@@H](Cc1ccccc1)C(=O)N[C@H](C(=O)N[C@@H](CC(N)=O)C(=O)N[C@@H](Cc1c[nH]c2ccccc12)C(=O)N[C@@H](CC(C)C)C(=O)N[C@@H](CC(C)C)C(=O)N[C@@H](C)C(=O)N[C@@H](CCC(N)=O)C(=O)N[C@@H](CCCCN)C(N)=O)C(C)C)[C@@H](C)CC` [GIP(3-30)NH2], in the data set on Male Wistar rats [1], the Intrahepatic triglyceride content result was “failed to change” and the Plasma triglyceride levels result is “increased”. Moreover, in data set [2] (rat plasma, after administration, in-house radioimmunoassay, data not shown, read-out: Maximum plasma concentration), the Cmax was around 17 nM. The Tmax in data set [2] (rat plasma, in-house radioimmunoassay, data not shown, read-out: Time of maximum plasma concentration after administration (converted)) was 10 min. In data set [2] (rat plasma, in-house radioimmunoassay, read-out: Half-life after injection), the Half-life is around 20 min. Moreover, the “Duration of exposure for the antagonist” value in data set [2] (rat, concluded from peak level and half-life) was at most 2 h. In addition, in the data set on Male Wistar rats [3] (ELISA), the Plasma adiponectin result is “no significant effect”. Moreover, in the data set on Male Wistar rats [3] (enzyme immunoassay), the Plasma leptin entry was “increased” and the Plasma resistin entry is “no significant effect”. Further, the “Plasma lipoprotein lipase (LPL) levels” value in the data set on Male Wistar rats [4] is recorded as “significantly enhanced”. Further, the “Serum CTX levels (bone resorption)” value in the data set on Male Wistar rats [5] is “did not affect”. Also, in the data set on Male Wistar rats [6] (25 nmol/kg b.w. sc once daily for 3 weeks, NMR spectroscopy (EchoMRI)), the Lean mass result is “no difference”. Besides, the Body fat mass entry with Male Wistar rats [6] (25 nmol/kg b.w. sc once daily for 3 weeks, end of treatment, NMR spectroscopy (EchoMRI)) was “increased”. Moreover, in the data set on Male Wistar rats [6] (setting [8]), the Food intake entry is “no measurable effect”. Further, in the data set with Male Wistar rats [6] (25 nmol/kg b.w. sc once daily), the “Body weight gain, first 2 weeks of treatment” value was “did not show differences”. Moreover, the “Body weight gain, third week of treatment” value in the data set with Male Wistar rats [6] (25 nmol/kg b.w. sc once daily, p < 0.05) was “significantly increased”.

A word on the Ki: it is a dissociation constant, usually derived from enzyme kinetics or from competition with a known ligand. Consider (Pro3)GIP, for which, in the data set with Male Wistar rats [1], the Intrahepatic triglyceride content result is “did not modify” and the Plasma triglyceride levels result is reported as “did not modify”. In the data set on Male Wistar rats [3] (leptin, resistin, adiponectin (Figure 2)), the “Plasma levels of adipokines” value was “did not modify”. Besides, in the data set on Male Wistar rats [4], the “Plasma lipoprotein lipase (LPL) levels” value was “did not modify”. Further, the “Serum CTX levels (bone resorption)” value in the data set on Male Wistar rats [5] was “did not affect”. For the same molecule, the “Body composition (total fat and lean mass)” value in the data set with Male Wistar rats [6] (25 nmol/kg b.w. sc once daily for 3 weeks, NMR (EchoMRI)) is reported as “not associated with changes”. In the data set with Male Wistar rats [6] (setting [8]), the Food intake entry is “not associated with changes” and the Body weight entry is “not associated with changes”. In addition, the Ki at rat GIPR is 19 nM.

Regarding “GLP-2(3-33): Synthetic human GLP-2(3-33), GLP-2R antagonist, from Caslo laboratory (DGSFSDEMNTILDNLAARDFINWLIQTKITD; Glucagon-like peptide 2; UniProt P01275 148-178, looked up, fragment)”, in the data set on Male Wistar rats [5], the “Serum CTX levels (bone resorption)” value is given as “did not change”. In addition, in the data set on Male Wistar rats [6] (setting [8]), the Food intake entry is given as “did not modify” and the Body weight entry is given as “did not modify”.

In the case of “GLP-2(11-33): Synthetic human GLP-2(11-33), GLP-2R antagonist, from Caslo laboratory (NTILDNLAARDFINWLIQTKITD; Glucagon-like peptide 2; UniProt P01275 156-178, looked up, fragment)”, the “Serum CTX levels (bone resorption)” value with Male Wistar rats [5] was “did not change”. Further, in the data set with Male Wistar rats [6] (setting [8]), the Food intake result is given as “did not modify” and the Body weight entry is “did not modify”.

For the molecule “Glucose-dependent insulinotropic peptide [GIP]”, the Half-life result in data set [7] (humans, DPP-4 mediated degradation) was “about 7 min”.

Turning to glucagon-like peptide-2 [GLP-2], in data set [7] (human, in vivo), the Half-life result is given as “about 7 min”.
